This passage reports TGI and GI50 results from PubChem BioAssay (NCI).

Test in all cases: NCI anticancer screen, dose series, 48 h
Test [1] relates to K-562 leukemia.
Test [2] relates to HT29 colon.
Test [3] has as its system MDA-MB-231 breast.
The test system of test [4] is T-47D breast.
Test [5] relates to MALME-3M melanoma.
For test [6], the system named is ACHN renal.
Test [7] relates to SN12C renal.
Test [8] has as its system RXF 393 renal.
Test [9] concerns SW-620 colon.
The subject of test [10] is OVCAR-4 ovarian.

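Briefly, cells in 96-well plates were exposed to five compound concentrations for 48 h, and endpoints were estimated by linear interpolation. GI50 = concentration required for 50% inhibition of growth. Definition used: TGI = concentration required for complete inhibition of growth.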

With `CC(=O)C(=[N+]=[N-])C(=O)N(C)CCC#N`, the TGI in test [1], in [2], in test [3], in test [4], in [5] and in test [6] was more than 10 µM throughout. Further, the TGI in [7], in test [8] and in test [9] was more than 10 µM in each case.

Consider `Cc1c(N2C(=O)/C(=C/c3ccc(N(CCC#N)CCC#N)cc3)N=C2c2ccccc2)c(=O)n(-c2ccccc2)n1C`, for which the TGI in test [2], in test [10], in [3], in test [4], in test [5] and in [7] was more than 100 µM in each case. The TGI in test [8] and in test [9] was more than 100 µM in each case.

For the compound `CCOC(=O)CN1CC(C2=C(O)CN(CC(=O)OCC)C2=O)=CC1=O`, the TGI in test [1], in [2], in test [10], in test [3], in test [4] and in [5] was more than 100 µM throughout. Besides, the TGI in [6], in test [7] and in test [9] was more than 100 µM throughout.

Turning to `O=C(Nc1sccc1S(=O)(=O)c1ccccc1)c1ccccc1`, the TGI in [1] is more than 19.9 µM; in test [2] it was more than 100 µM; in test [10] it was more than 100 µM; in test [3] it was more than 100 µM; in [4], more than 100 µM; in test [5] it was more than 100 µM. The TGI in test [6], in test [7] and in test [9] was more than 100 µM throughout.

On to `N#C/C(N)=C(\C#N)N=CNc1ccc(N)cc1`, for which the TGI in [1], in test [2], in [10], in test [3], in [4] and in test [5] was more than 100 µM in each case. Besides, the TGI in test [6], in test [7] and in test [9] was more than 100 µM each time.

On to `O=C1CCCCC/C1=C\c1ccccc1`, for which the TGI in test [1], in test [2], in [10], in [3], in test [4] and in [5] was more than 100 µM in each case. The TGI in test [6], in test [7] and in [9] was more than 100 µM each time.

With `O=C(Nc1nnc(-c2c(Cl)c(Cl)c(Cl)c(Cl)c2-c2nc3cc(C(=O)c4ccccc4)ccc3[nH]2)o1)c1ccc(Cl)cc1`, the TGI in test [1], in test [2], in [10], in [3], in test [4] and in [6] was more than 100 µM throughout. Further, the TGI in test [7] was 53 µM; in test [8], more than 100 µM; in test [9], more than 100 µM.

For the compound `ClCc1cccc(CSc2ncnc3c2ncn3Cc2cccc(CCl)c2)c1`, the GI50 in test [1] was 2.71 µM; in [2], 2.04 µM; in test [10], 2.38 µM; in [3] it was 1.93 µM; in [4], 2.31 µM; in test [6] it was 2 µM. Moreover, the GI50 in test [7] was 2.02 µM; in test [8], 1.05 µM; in test [9], 1.69 µM. Further, the TGI amounted to 15 µM in [1]; 3.74 µM in test [2]; 10.6 µM in [10]; 3.82 µM in test [3]; 5.12 µM in [4]; 4.39 µM in [6]. Moreover, the TGI was found to be 7.33 µM in test [7], 2.4 µM in test [8] and 3.47 µM in test [9].

Turning to `CCCN1C(=O)/C(=C\c2ccc(OC)c(OC)c2)SC1=Nc1ccccc1`, the TGI in test [1], in test [2], in test [10], in test [3], in test [4] and in test [5] was more than 100 µM each time. Also, the TGI in test [6], in test [7] and in test [9] was more than 100 µM in each case.

As to `CC(C)(C)OC(=O)CN1CCN(CC(=O)N2CCN(C(=O)OCc3ccccc3)CC2)CCN(CC(=O)OC(C)(C)C)CCN(CC(=O)N2CCN(C(=O)OCc3ccccc3)CC2)CC1`, the TGI is 1.37 µM in test [2]; 16.2 µM in [10]; 5.01 µM in test [3]; 18.8 µM in test [4]; 7.94 µM in test [5]; 22.3 µM in test [6]. Further, the TGI in test [7] was 16.3 µM; in test [8], 17 µM; in test [9], 8.5 µM.

As to `Cc1cccc(C)c1Nc1nc(C)c(C(=O)CC(=O)C(=O)Nc2c(C(C)C)cccc2C(C)C)s1`, the TGI in test [1], in [2], in test [10], in test [3], in test [4] and in test [6] was more than 100 µM in each case. Further, the TGI in test [7], in test [8] and in test [9] was more than 100 µM throughout.

In the case of `COc1ccc(-n2c(=O)n(-c3ccccc3)c(=O)n2-c2ccc(OC)cc2)cc1`, the TGI in [1], in test [10], in [3], in [4], in test [5] and in test [6] was more than 100 µM each time. For the same compound, the TGI in [7], in test [8] and in [9] was more than 100 µM throughout.

Take `NC1Cc2ccccc2OC1=O` (stereo not drawn): the TGI in test [1], in test [2], in test [3], in test [4], in test [5] and in test [6] was more than 100 µM in each case. Moreover, the TGI in [7], in [8] and in test [9] was more than 100 µM each time.

For `CC1(C)CC(=O)c2c(nc3c(ccc4ccccc43)c2-c2ccc(NC(=O)CCCCC(=O)Nc3ccc(-c4c5c(nc6c4ccc4ccccc46)CC(C)(C)CC5=O)cc3)cc2)C1`, the TGI in test [1] was more than 100 µM; in test [2], 62.3 µM; in test [3] it was 64.6 µM; in test [4], more than 100 µM; in [6], 69.1 µM; in [7], 92.8 µM. In addition, the TGI in test [8] and in test [9] was more than 100 µM each time.
